Reference: patent publication US20250353828A1, “SUBSTITUTED BIARYL ENDOCHIN-LIKE QUINOLONES WITH ENHANCED ANTIPARASITIC ACTIVITY” (Oregon Health & Science University, priority 2022, published 2025)

Key:
[1] = system: P. falciparum D6 strain (drug sensitive); test: In vitro antiplasmodial activity, SYBR Green I assay, D6 strain; format: cell-based, Plasmodium falciparum; settings: Plasmodium falciparum; D6 strain; 72 h incubation; averages of quadruplicate with (95% confidence intervals); read-out: P. falciparum IC50 values, nM D6
Description: (§1) Rationale for Synthesis of a 3-Biaryl Version of ELQ-300. […] All of this information is stored in a database with information relating to chemical structure, physical chemical properties, cross resistance patterns, mammalian cell cytotoxicity, enzyme inhibitor profiles, and synthesis details. […] We employed the SyBr Green assay and the plates were incubated for 72 hours before harvesting^18, 19. […] Stock solutions were freshly prepared in DMSO.
(§2) Plasmodium falciparum Culture. Laboratory strains of P. falciparum were cultured in human erythrocytes by standard methods. The parasites were grown in culture medium with fresh human erythrocytes maintained at 2% hematocrit at 37° C. in low-oxygen conditions (5% O2, 5% CO2, […] balance N2). […] Cultures were maintained at less than 10% parasitemia by transfer of infected cells to fresh erythrocytes and culture medium every 3 or 4 days.
(§3) In vitro drug susceptibility assays. SYBR green I assay. In vitro antiplasmodial activity was assessed using a published SYBR Green I fluorescence-based method. The drugs were added to 96-well plates using 2-fold serial dilutions in complete medium. […] Asynchronous P. falciparum parasites were diluted with uninfected erythrocytes and added to the wells to give a final culture volume of 100 μl at 2% hematocrit and 0.2% parasitemia. […] The parasites were then lysed by adding 100 μl of SYBR green I lysis buffer containing 0.2 μl/ml SYBR green I dye (10,000×) in 20 mM Tris (pH 7.5), 5 mM EDTA, 0.008% (wt/vol) saponin, and 0.08% (vol/vol) Triton X-100. The plates were incubated at room temperature for an hour in the dark. […] If the IC50 value fell outside of the initial tested range then the range was adjusted up or down and the assay was repeated.

[2] = system: P. falciparum Dd2 strain (multidrug resistant); test: microbe, parasite or virus in culture; format: cell-based, Plasmodium falciparum; settings: read-out: P. falciparum IC50 values, nM Dd2; Dd2 strain; 72 h incubation; averages of quadruplicate with (95% confidence intervals)
Description: as §1, §2, §3

[3] = system: P. falciparum Tm90-C2B (atovaquone-resistant clinical isolate); test: In vitro antiplasmodial activity, SYBR Green I assay, Tm90-C2B; format: cell-based; settings: Plasmodium falciparum; Tm90-C2B strain; 72 h incubation; averages of quadruplicate with (95% confidence intervals); read-out: P. falciparum IC50 values, nM Tm90-C2B
Description: as §1, §2, §3

[4] = system: P. falciparum D1 clone (ELQ-300 resistant); test: microbe, parasite or virus in culture; format: cell-based; settings: Plasmodium falciparum, 72 h, read-out: P. falciparum IC50 values, nM D1
[5] = system: P. yoelii (Kenya Strain) blood stage infection in mice; test: 4-day Peters test against murine malaria; format: in vivo; settings: P. yoelii in mice, oral gavage in PEG400 on Days 1-4; prodrugs dosed on molar equivalency to parent drug
Description: On Day 5 a drop of blood was taken from the tail and a blood smear was prepared, fixed with methanol, and stained with Giemsa. The operator then examined the stained smear microscopically to determine percent parasitemia. Dosages of 0.0025, 0.005, 0.01, 0.03, 0.1, 0.3, 1.0 and 10 mg/kg/day were used for the experiment. […] In this model animals were inoculated exactly as for the 4-day test on Day 0 however drug was administered only on Day 1 while the operator made smears on Day 5 and again weekly thereafter for animals that remained aparasitemic. Animals that remained aparasitemic out to […] were scored as cures.
In Vivo Efficacy against Murine Malaria. The P. yoelii 4-day test monitors suppression of patent infection in female CF1 mice. The test began with the inoculation (iv) of parasitized erythrocytes (3.5×10^4/P. yoelli) (from a donor animal) on the first day of the experiment (D0). […] Initially the 3-biaryl-ELQs were tested at doses of 0.0025, 0.005, 0.01, 0.03, 0.1, 0.3, 1.0 and 10 mg/kg/day, including a vehicle-only (PEG400) control. After completion of drug treatment, a blood sample was collected (by pricking the tail vein) for determination of parasite burden beginning on the day after the final dose (D5). Percent parasitemia is assessed by direct microscopic analysis of Giemsa-stained blood smears. […] Animals with observable parasitemia following the experiment were euthanized; animals cleared of parasites from the bloodstream were observed daily with assessment of parasitemia performed weekly until day 30, at which point the animal(s) were scored as cured of infection. […] Non-linear regression analysis is used for objective determination of ED50's and ED90's from the accumulated data as well as the Non-Recrudescence Dose (NRD). The 4-day test protocol was reviewed and approved by the local IACUC board at the Portland VA Medical Center. Experiments were performed with 4 mice per group to ensure statistical accuracy.

[6] = system: P. yoelii blood stage infection in mice; test: In vivo single-dose cure against murine malaria; settings: lowest single dose that cures all 4 mice; P. yoelii, dose on Day 1; prodrugs dosed on molar equivalency to parent drug
Description: Animals that remained aparasitemic out to […] were scored as cures.
In Vivo Single-Dose Efficacy against Murine Malaria. The effectiveness of selected 3-biarylELQs and prodrugs was assessed vs. the blood stage infection for single dose cures. Mice are infected iv with 3.5×10^4 P. yoelii infected RBCs as described for the 4-day test above. Drug administration occurred on the day after inoculation (Day 1). Test agents were dissolved in PEG-400 and administered ig once. On the 5th day blood films were prepared and % parasitemia was assessed. Animals remaining parasite-free for 30 days after drug administration were considered cured. The initial dosing range was: 0.5, 1, 2.5, 5, 10 mg/kg, including a control. Experiments were performed with 4 mice per group to ensure statistical accuracy. The reported parameter for these studies is the lowest single dose that provides a cure to all 4 animals in the group.

[7] = system: P. falciparum cytochrome bc1 complex; test: biochemical; settings: based on enzyme inhibitory activity
Excerpt: Isolation of Plasmodium falciparum Mitochondria and Ubiquinol-Cytochrome c Oxidoreductase Assay.

[8] = HepG2 cytotoxicity, TiterGlo ATP luminescence, galactose medium; format: cell-based, human; settings: human
Description: […]. Of course, enhanced potency is desirable only if unaccompanied by enhanced toxicity. […] […]. The incubation period for these experiments was 48 hours.

[9] = target: T1, P. falciparum cytochrome bc1 complex (Plasmodium falciparum, UniProt Q02768); settings: data taken from Nilsen et al., 2013 (a) or Frueh et al., 2017 (b); cited from earlier work
T1 construct: endogenous in cells
T1 sequence (Q02768 1-376): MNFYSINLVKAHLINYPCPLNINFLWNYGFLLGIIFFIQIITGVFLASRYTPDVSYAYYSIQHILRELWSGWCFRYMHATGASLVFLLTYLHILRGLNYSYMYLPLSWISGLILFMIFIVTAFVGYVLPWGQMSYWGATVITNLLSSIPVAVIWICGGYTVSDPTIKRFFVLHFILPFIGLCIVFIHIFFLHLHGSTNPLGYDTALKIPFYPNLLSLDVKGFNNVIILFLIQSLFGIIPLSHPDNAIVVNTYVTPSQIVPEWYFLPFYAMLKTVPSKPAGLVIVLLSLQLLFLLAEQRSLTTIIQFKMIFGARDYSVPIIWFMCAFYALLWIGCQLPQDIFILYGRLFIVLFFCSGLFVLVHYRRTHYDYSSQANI

[10] = target: T2, human liver cytochrome bc1 complex (Homo sapiens, UniProt P00156); settings: data taken from Nilsen et al., 2013 (a) or Frueh et al., 2017 (b); cited from earlier work
T2 construct: human host cytochrome bc1 complex isolated from human liver tissue; from tissue; host or cells: human liver tissue

Q: With COc1cc2[nH]c(C)c(-c3ccc(Oc4ccc(OC(F)(F)F)cc4)cc3)c(=O)c2cc1Cl [ELQ-300, reference compound] as the molecule, how does the IC50 [1] read?
A: The IC50 was 3.3 nM.

Q: And the IC50 [2]?
A: The IC50 was 4.2 nM.

Q: And the IC50 [3]?
A: Its IC50 is 2.5 nM.

Q: And the IC50 [4]?
A: Its IC50 is 168 nM.

Q: And the “4-day Peters Test Results ED90” value [5]?
A: The value was 0.06 mg/kg/day.

Q: What about the “4-day Peters Test Results NRD (non-recrudescence dose)” value [5] of the same molecule?
A: The value was 1.0 mg/kg/day.

Q: And the Single dose cure [6]?
A: The Single dose cure was >25 mg/kg/day.

Q: What about the “Selectivity Index Human/Pf cyt. bc1” value [7] of the same molecule?
A: Its value is ≥18,000.

Q: What about the EC50 at 48 h [8] of the same molecule?
A: The EC50 at 48 h was > 10000 nM.

Q: And the IC50 [9]?
A: Its IC50 is 0.56 nM.

Q: And the IC50 [10]?
A: Its IC50 is > 10000 nM.
